Data reported in ChEMBL document CHEMBL1914419, “Discovery of aryloxy tetramethylcyclobutanes as novel androgen receptor antagonists” (J Med Chem, 2011).

Experiment: Intrinsic clearance in human liver microsomes
Format: ADME, Microsome

Row | Structure (SMILES) | microsomal CLint
1 | Cc1cc(C(=O)N[C@H]2C(C)(C)[C@H](Oc3ccc(C#N)c(Cl)c3)C2(C)C)nn1C | 40 µL/min/mg
2 | CC(=O)N[C@H]1C(C)(C)[C@H](Oc2ccc(C#N)c(Cl)c2)C1(C)C | < 8 µL/min/mg
3 | CC(=O)N[C@H]1C(C)(C)[C@H](Oc2ccc(C#N)c(C(F)(F)F)c2)C1(C)C | 11 µL/min/mg
4 | CC1(C)[C@H](NC(=O)c2cnccn2)C(C)(C)[C@H]1Oc1ccc(C#N)c(Cl)c1 | 9.8 µL/min/mg
5 | CC1(C)[C@H](NC(=O)c2cnc3ncccn23)C(C)(C)[C@H]1Oc1ccc(C#N)c(Cl)c1 | < 10 µL/min/mg
6 | Cc1nc2ncccn2c1C(=O)N[C@H]1C(C)(C)[C@H](Oc2ccc(C#N)c(Cl)c2)C1(C)C | 19 µL/min/mg
7 | COCCn1ccc(C(=O)N[C@H]2C(C)(C)[C@H](Oc3ccc(C#N)c(Cl)c3)C2(C)C)n1 | 57 µL/min/mg
8 | CC1(C)[C@H](NC(=O)c2ccn(CCO)n2)C(C)(C)[C@H]1Oc1ccc(C#N)c(Cl)c1 | < 12 µL/min/mg
9 | CC1(C)[C@H](NC(=O)c2cnn(CCO)c2)C(C)(C)[C@H]1Oc1ccc(C#N)c(Cl)c1 | 11 µL/min/mg
10 | CC1(C)[C@H](NC(=O)c2ccn(CCC#N)n2)C(C)(C)[C@H]1Oc1ccc(C#N)c(Cl)c1 | 25 µL/min/mg
11 | CN(C)C(=O)Cn1ccc(C(=O)N[C@H]2C(C)(C)[C@H](Oc3ccc(C#N)c(Cl)c3)C2(C)C)n1 | 15 µL/min/mg
12 | Cc1nc(O[C@H]2C(C)(C)[C@H](NC(=O)c3cnc4ncccn34)C2(C)C)ccc1C#N | < 8 µL/min/mg

The next lines start with the values.

Row | microsomal CLint | Structure (SMILES)
13 | < 7 µL/min/mg | CC(=O)N[C@H]1C(C)(C)[C@H](Oc2ccc(C#N)c(C#N)c2)C1(C)C
14 | < 7 µL/min/mg | CC(=O)N[C@H]1C(C)(C)[C@H](Oc2ccc(C#N)c(C)c2)C1(C)C
15 | 17.5 µL/min/mg | CC(=O)N[C@H]1C(C)(C)[C@H](Oc2ccc(C#N)cc2Cl)C1(C)C
16 | < 8 µL/min/mg | CC1(C)[C@H](NC(=O)c2cn[nH]c2)C(C)(C)[C@H]1Oc1ccc(C#N)c(Cl)c1
17 | 9 µL/min/mg | Cn1cc(C(=O)N[C@H]2C(C)(C)[C@H](Oc3ccc(C#N)c(Cl)c3)C2(C)C)cn1
18 | 29 µL/min/mg | Cc1nnc(C(=O)N[C@H]2C(C)(C)[C@H](Oc3ccc(C#N)c(Cl)c3)C2(C)C)o1
